Results as given in patent US20070117157A1, “Parathyroid hormone-like polypeptides” (priority 2002, published 2007).
“Also recorded” adds a separate entry of the source.

Experiments:
PTH-1R = PTH-1R (UniProt P25961); assay: cell-based or functional assay
UMR106.01 cells = assay: cAMP production (adenylate cyclase response) in UMR106.01 cells; format: cell-based; details: for cAMP formation by the peptide alone: FIG. 5A/5B; for maximum amplitude of cAMP response: compared with other peptides at highest concentrations
Experimental: The PTH-like biological activity of the peptides was assayed by measuring cyclic adenosine 3′,5′-monophosphate (cAMP) production in UMR106.01 cells (Forrest et al, Calcif Tissue Int, 37:52-56 (1985)), grown to 90% confluence. Prior to assaying, the cells were washed once with phosphate buffered saline (PBS) and equilibrated for 20 mins in medium containing 0.1% BSA and lmM-isobutylmethylxanthine (Sigma, St Louis, USA). Cells were subsequently stimulated at 37° C for 10 mins in the absence and presence of increasing hormone concentrations. The cells were then washed once with PBS and cAMP was extracted with 1.5 ml acidified ethanol. Samples were evaporated to dryness, reconstituted in assay buffer and assayed by a specific cAMP radioimmunoassay (Houssami et al, Endocrine J. 2:127-134 (1994)).

PTH-3R = details: zebrafish PTH-3R, Rubin et al; cited from earlier work
[1] = tested on: bones of male Sprague-Dawley rats; assay: Anabolic effect on bones of rats (histomorphometry of proximal tibiae); format: in vivo, rat; details: for osteoblast number per unit osteoid surface: FIG. 10; for histomorphometric markers of bone resorption: FIG. 11
Experimental: The anabolic effect of Fugu PTH was assessed in the bones of 50-60 g male Sprague-Dawley rats (3-4 weeks old).
Rats were subcutaneously administered a low or high dose (3 or 10 gg) of Fugu PTH(1-34) per 100 g body weight each day for 30 days. The synthetic PTH peptides were dissolved in 0.01M acetic acid and then daily injections were prepared in normal saline with 2% rat serum (from male Sprague-Dawley rats). The rats were weighed twice a week and the PTH dose adjusted for the increasing weight of each animal.
There were 12 rats in each of the following treatment groups: control, human PTH (low or high dose) and Fugu PTH (low or high dose). Rats were euthanased using asphyxiation and tibiae were removed, leaving most of the muscle on the bone. The samples were placed into freshly prepared 4% paraformaldehyde. They were fixed for 24 hours and then transferred to 70% ethanol in preparation for histomorphometry.
Fixed tibiae were X-rayed and embedded in methylmethacrylate resin as follows: Tibiae were cleaned of muscle, then bisected transversely and trimmed approximately 2 mm on each side using a water cooled slow speed bench saw to provide a flat surface for embedding, parallel to the sagittal midline. Fixed tibiae were dehydrated in acetone by hourly changes of 70% acetone, 90% acetone and 100% acetone (×2). After dehydration, samples were infiltrated with methylmethacrylate resin (85% methylmethacrylate, 15% dibutylphthalate, 0.05% benzoyl peroxide) twice for at least 3 days (minimum total of 6 days). For at least one day of the infiltration procedure, samples were infiltrated under vacuum at room temperature; all other steps were carried out at 4° C. After infiltration, tibiae were embedded in glass scintillation vials on a polymerised methylmethacrylate base in methylmethacrylate resin (85% methylmethacrylate, 15% dibuylphthalate, 3% benzoyl peroxide) in a waterbath in a 37° C. incubator over 48 hours. After polymerisation, a third layer of methacrylate was included (same components as above plus acrylic resin beads) and allowed to polymerise over another 48 hours. After samples were fully polymerised, they were cooled at −20° C. to allow polymer contraction, before the embedded tibiae were released from the glass vials by smashing them with a hammer. Polymerised tibiae were then ground on an electric grinder/ polisher to expose the bone surface, and provide a squared block to sit securely in a microtome. 5 μm sections were cut on a Leica 2165 microtome, spread with 95% ethanol and adhered to glass microscope slides by clamping overnight at 37° C. separated by pieces of bagging plastic. Fully adhered sections were deplasticised in cellosolve for 2×25 minutes, dehydrated in graded ethanols and stained with toluidine blue for standard histomorphometry. Von Kossa staining was carried out to provide composite images.
Histomorphometry was carried out according to standard procedures using the Osteomeasure Image analysis system (Osteometrics, Decatur, Ga.) in the secondary spongiosa, starting 3 mm below the growth plate in a region 3 mm wide by 1.1 mm high. Data was analysed by one-way ANOVA followed by Tukey's post-hoc test to locate significant differences.

[2] = tested on: polyclonal antisera raised against human PTHrP(1-14), human PTHrP(1-141) and hPTH(1-34); assay: Immunoblots (dot blots) with anti-human PTHrP and anti-human PTH antisera; format: binding, rabbit; details: 10, 25, 50 μg spotted, data not shown
Description: Seven antisera (R88, R1904, R1942, R87, R1348, R196, R212) were raised against human PTHrP(1-14) and one antiserum (R190) was raised against human PTHrP(1-141). The anti-PTH polyclonal antibody was raised against hPTH(1-34)(BioGenex, San Ramon, USA). The anti-human PTHrP antisera have been used successfully in immunohistochemistry and Western blotting with tissues taken from bony and cartilaginous fishes (Danks et al, Gen Comp Endocrinol, 92:201-212 (1993); Ingleton et al, Gen Comp Endocrinol 98:211-218 (1995)). The anti-PTH antiserum has been used in immunohistochemistry of human parathyroid material and Western blotting (Danks et al, J Pathol, 161:27-33 (1993)). 10, 25, 50 μg of Fugu PTH were spotted along side a positive control, (ie human PTHrP(I-34)), on nitrocellulose membrane (Schleicher & Schuell, Dassel, Germany). After an initial incubation period with Tris buffered saline, 0.2% Tween, 5% skim milk powder to block non specific binding sites, the nitrocellulose membrane was incubated with primary polyclonal antibody, followed by secondary antibody (anti-rabbit serum conjugated to horseradish peroxidase (Dako, Carpenteria, USA)) incubation. Three washes on a shaker table were done in between incubations. A BM chemiluminescence blotting system (Roche Applied Sciences, Mannheim, Germany) was used to detect specific dot blots.

[3] = high dose 10 microgram/100 gram body weight/day
[4] = 10 microgram/100 gram body weight/day, 30 days, vs untreated control

Sequence of UniProt P25961 (P25961 27-591 limits assumed): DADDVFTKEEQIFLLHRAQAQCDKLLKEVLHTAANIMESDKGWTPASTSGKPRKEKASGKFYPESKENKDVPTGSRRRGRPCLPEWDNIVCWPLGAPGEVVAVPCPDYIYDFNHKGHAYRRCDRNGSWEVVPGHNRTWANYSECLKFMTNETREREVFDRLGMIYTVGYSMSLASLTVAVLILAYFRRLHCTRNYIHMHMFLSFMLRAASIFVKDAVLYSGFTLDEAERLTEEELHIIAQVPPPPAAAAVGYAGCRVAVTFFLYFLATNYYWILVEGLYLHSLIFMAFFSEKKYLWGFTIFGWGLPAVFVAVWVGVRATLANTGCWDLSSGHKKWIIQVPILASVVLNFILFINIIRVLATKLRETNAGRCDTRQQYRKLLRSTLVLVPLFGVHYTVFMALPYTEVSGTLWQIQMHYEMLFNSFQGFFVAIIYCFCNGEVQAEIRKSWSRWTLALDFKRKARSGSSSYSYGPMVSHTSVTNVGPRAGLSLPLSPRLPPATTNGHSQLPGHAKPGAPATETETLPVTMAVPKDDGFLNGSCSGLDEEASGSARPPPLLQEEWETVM

Fugu PTHrP(1-34) (peptide)
ID50 of adenylate cyclase response (FIG. 5B), UMR106.01 cells (PTH-1R): 1.5 nM | ID50 of cAMP formation in UMR106.01 cells (PTH-1R): 1.4 nM

human PTHrP(7-34): human parathyroid hormone-related protein fragment 7-34, co-incubated as inhibitor of the cAMP response [reference compound]
inhibition of the cAMP response to agonist peptides (UMR106.01 cells; increasing concentrations co-incubated with 10 nM Fugu PTH(1-34), 1 nM human PTH(1-34), 0.5 nM Fugu PTHrP(1-34) or 0.5 nM human PTHrP(1-34), data not shown): partial inhibition of the cAMP response

human PTH: human parathyroid hormone, comparator peptide in rats (low or high dose); fragment length not stated there [reference compound]
fold less potent than human PTHrP or Fugu PTHrP in receptor activation (PTH-3R): 20 fold | osteoclastogenesis ([1]; 10 microgram/100 gram): mild reduction in osteoclastogenesis | histomorphometric markers of bone formation (osteoblast number and surface) ([1]; dose not specified in legend, FIG. 9): significantly elevated | osteoblast number per unit osteoid surface [1, 3]: significantly increased | histomorphometric markers of bone resorption [1, 3]: significantly reduced

Fugu PTH(1-32): synthetic fragment, amino acids 1-32 of Fugu PTH (TVSEVQLMHNLGEHKQVQERREWLQRRLHGIH)
cAMP formation by the peptide alone (UMR106.01 cells): stimulated cAMP formation | maximum amplitude of cAMP response (UMR106.01 cells): higher amplitude of maximum cAMP response than Fugu PTHrP(1-34)

TVSEVQLMHNLGEHKQVQERREWLQRRLHGIHPIGLNNDDEPGWGRKGIASRELPNLRDLTPEEIQNALNVLEELLKSQE [Fugu PTH(1-34)]
potency in cAMP assay relative to other peptides (UMR106.01 cells): less potent than human PTH(1-34), human PTHrP(1-34) and Fugu PTHrP(1-34) | adenylate cyclase activity on co-incubation with Fugu PTHrP(1-34) (UMR106.01 cells; 100 nM Fugu PTH(1-34) with maximal dose 10 nM Fugu PTHrP(1-34), data not shown): no further increase in adenylate cyclase activity was observed | cAMP formation by the peptide alone (UMR106.01 cells): stimulated cAMP formation | potency relative to human PTH or PTHrP (UMR106.01 cells; adenylate cyclase activation on a mammalian target cell): about one-fifth to one-tenth | maximum amplitude of cAMP response (UMR106.01 cells): higher amplitude of maximum cAMP response than Fugu PTHrP(1-34); also recorded: significantly greater than that achieved with the highest concentrations of human PTH, human PTHrP or Fugu PTHrP | cross-reactivity with antisera against human PTHrP and human PTH [2]: does not cross-react; also recorded: is not recognised by any of the human PTH or human PTHrP antisera | trabecular bone volume [1, 4]: significant increase | trabecular number [1, 4]: significant increase | trabecular separation [1, 4]: without a reduction | trabecular thickness [1, 4]: significant increase | osteoblast generation ([1]; 10 micrograms/100 grams): increased osteoblast generation | anabolic effect on bone ([1]; 10 micrograms/100 grams, young growing rats): anabolic in young growing rats | histomorphometric markers of bone resorption ([1]; dose not specified): not significantly altered | osteoclast number [1, 3]: trend for reduced osteoclast numbers but this did not reach statistical significance; also recorded: trend towards reduced osteoclast number | osteoblast number per unit osteoid surface [1, 3]: significantly increased | osteoblast proliferation ([1]; low dose 3 microgram/100 gram body weight/day, FIG. 9): trend towards increased osteoblast proliferation | osteoblast number per unit osteoid surface ([1]; low dose 3 microgram/100 gram body weight/day): significantly increased | bone mass / trabecular density in proximal tibiae ([1]; young rats, s.c. daily for 30 days, 3 or 10 microgram/100 gram body weight/day, FIG. 6): increases bone mass in young rats; also recorded: apparent elevation of trabecular density
